Measurements as given in BindingDB's records for doi:10.1016/j.bmcl.2007.11.134 (Korea Institute of Science and Technology, 2008).

Assays:
[1] = Inhibition of HIV1 reverse transcriptase K103N mutant by HeLa-MAGI assay
[2] = target: Reverse transcriptase protein (Human immunodeficiency virus 1, UniProt Q9WJQ2); experiment: Inhibition of HIV1 reverse transcriptase K103N mutant by HeLa-MAGI assay

Cc1cc(OCCCNC(N)=O)ccc1NC(=O)COc1ccc(Cl)cc1C(=O)c1cc(F)cc(C(F)(F)F)c1
IC50 [1]: 4 nM

Cc1ccccc1NC(=O)COc1ccc(Cl)cc1C(=O)c1cc(F)cc(F)c1
IC50 [1]: 38 nM

Cc1[nH]/c(=N/S(=O)(=O)c2cccc([N+](=O)[O-])c2)sc1C(C)(C)C
IC50 [1]: 32400 nM

Cc1cc(S(N)(=O)=O)ccc1NC(=O)COc1ccc(Cl)cc1C(=O)c1cc(C#N)cc(C(F)(F)F)c1
IC50 [1]: 1.1 nM

Cc1cc(Cl)cc(C(=O)c2cc(Cl)ccc2OCC(=O)Nc2ccc(S(N)(=O)=O)cc2C)c1
IC50 [1]: 3.6 nM

Cc1cc(S(N)(=O)=O)ncc1NC(=O)COc1ccc(Cl)cc1C(=O)c1cc(Cl)cc(C#N)c1
IC50 [1]: 5 nM

Cc1cc(C#N)cc(C(=O)c2cc(Cl)ccc2OCC(=O)Nc2cnc(S(N)(=O)=O)cc2C)c1
IC50 [1]: 7.1 nM

Cc1cc(C#N)cc(C(=O)c2cc(Cl)ccc2OCC(=O)Nc2ccc(S(N)(=O)=O)nc2C)c1
IC50 [1]: 6 nM

COc1ccc(NC(=O)COc2ccc(Cl)cc2C(=O)c2cc(F)cc(F)c2)cn1
IC50 [1]: 72 nM

COCCOCCOc1ccc(NC(=O)COc2ccc(Cl)cc2C(=O)c2cc(F)cc(C(F)(F)F)c2)c(C)c1
IC50 [1]: 16 nM

Cc1cc(NC(=O)CCN2CCOCC2)ccc1NC(=O)COc1ccc(Cl)cc1C(=O)c1cc(F)cc(F)c1
IC50 [1]: 8.9 nM

CCN(CC)CCCNc1ccc(NC(=O)COc2ccc(Cl)cc2C(=O)c2cc(F)cc(F)c2)c(C)c1
IC50 [1]: 95 nM

Cc1cc(S(=O)(=O)N(C)C)ccc1NC(=O)COc1ccc(Cl)cc1C(=O)c1cc(F)cc(C(F)(F)F)c1
IC50 [1]: 6 nM

Cc1cc(N2CC[S+]([O-])CC2)ccc1NC(=O)COc1ccc(Cl)cc1C(=O)c1ccc(C#N)cc1
IC50 [1]: 44 nM

Cc1cc(N2CC[S+]([O-])CC2)ccc1NC(=O)COc1ccc(Cl)cc1C(=O)c1ccccc1
IC50 [1]: 100 nM

COc1cc(OC)cc(C(=O)c2cc(Cl)ccc2OCC(=O)Nc2ccc(S(N)(=O)=O)cc2C)c1
IC50 [1]: 372 nM

Cc1cc(C#N)cc(C(=O)c2cc(Cl)ccc2OCC(=O)Nc2ccc(S(N)(=O)=O)cc2C)c1
IC50 [1]: 0.891 nM

Cc1cc(S(N)(=O)=O)ccc1NC(=O)COc1ccc(Cl)cc1C(=O)c1cncc(C#N)c1
IC50 [1]: 141 nM

Cc1cc(NCCCn2ccnc2)ccc1NC(=O)COc1ccc(Cl)cc1C(=O)c1cc(F)cc(F)c1
IC50 [1]: 158 nM

Cc1cc(NCCCN2CCCC2)ccc1NC(=O)COc1ccc(Cl)cc1C(=O)c1cc(F)cc(F)c1
IC50 [1]: 110 nM

Cc1cc(C)cc(C(=O)c2cc(Cl)ccc2OCC(=O)Nc2ccc(S(N)(=O)=O)cc2C)c1
IC50 [1]: 3.3 nM

O=C(COc1ccc(Cl)cc1C(=O)c1cc(F)cc(F)c1)Nc1ccc(Cl)nc1
IC50 [1]: 68 nM

Cc1nc(S(N)(=O)=O)ccc1NC(=O)COc1ccc(Cl)cc1C(=O)c1cc(Cl)cc(C#N)c1
IC50 [1]: 3 nM

CNS(=O)(=O)c1ccc(NC(=O)COc2ccc(Cl)cc2C(=O)c2cc(F)cc(C(F)(F)F)c2)c(C)c1
IC50 [1]: 2 nM

Cc1cc(S(N)(=O)=O)ccc1NC(=O)COc1ccc(Cl)cc1C(=O)c1cc(Cl)cc(Br)c1
IC50 [1]: 6.2 nM

Cc1cc(S(N)(=O)=O)ccc1NC(=O)COc1ccc(Cl)cc1C(=O)c1cccc(C#N)c1
IC50 [1]: 1.5 nM

Cc1cc(N2CC[S+]([O-])CC2)ccc1NC(=O)COc1ccc(Cl)cc1C(=O)c1ccccc1C#N
IC50 [1]: 155 nM

Cc1cc(S(N)(=O)=O)ccc1NC(=O)COc1ccc(Cl)cc1C(=O)c1cc(Br)cc(C(F)(F)F)c1
IC50 [1]: 93 nM

Cc1cc(N2CC[S+]([O-])CC2)ccc1NC(=O)COc1ccc(Cl)cc1C(=O)c1cccc(C#N)c1
IC50 [1]: 5 nM

Cc1cc(C#N)cc(C(=O)c2cc(Cl)ccc2OCC(=O)Nc2ncc(S(N)(=O)=O)cc2C)c1
IC50 [1]: 93 nM

Cc1c(C(C)(C)C)s/c(=N\S(=O)(=O)c2cc(Cl)ccc2N)n1C [2-amino-N-[(2Z)-5-tert-butyl-3,4-dimethyl-2,3-dihydro-1,3-thiazol-2-ylidene]-5-chlorobenzene-1-sulfonamide]
IC50 [1]: 15800 nM

Cc1c(C(C)(C)C)s/c(=N\S(=O)(=O)c2cccc([N+](=O)[O-])c2)n1C [3-substituted thiazolidene deriv. 17a]
IC50 [2]: 12900 nM

Cc1c(C(C)C)s/c(=N\S(=O)(=O)c2cc(Br)ccc2C#N)n1C [5-Bromo-2-cyano-N-(5-isopropyl-3,4-dimethyl-1,3-thiazol-2(3H)-ylidene)benzenesulfonamide]
IC50 [1]: 3980 nM

CC(C)c1s/c(=N\S(=O)(=O)c2cc(Cl)ccc2C#N)n(C)c1Cl [5-Chloro-N-(4-chloro-5-isopropyl-3-methyl-1,3-thiazol-2(3H)-ylidene)-2-cyanobenzenesulfonamide]
IC50 [1]: 3980 nM

CC(C)c1s/c(=N\S(=O)(=O)c2cc(Br)ccc2O)n(C)c1Cl [5-bromo-N-[(2Z)-4-chloro-3-methyl-5-(propan-2-yl)-2,3-dihydro-1,3-thiazol-2-ylidene]-2-hydroxybenzene-1-sulfonamide]
IC50 [1]: 40 nM

Cc1c(C(C)C)s/c(=N\S(=O)(=O)c2cc(Cl)ccc2C#N)n1C [5-chloro-2-cyano-N-[(2Z)-3,4-dimethyl-5-(propan-2-yl)-2,3-dihydro-1,3-thiazol-2-ylidene]benzene-1-sulfonamide]
IC50 [1]: 6310 nM

CC(C)c1s/c(=N\S(=O)(=O)c2cc(Cl)ccc2O)n(C)c1Cl [5-chloro-N-[(2Z)-4-chloro-3-methyl-5-(propan-2-yl)-2,3-dihydro-1,3-thiazol-2-ylidene]-2-hydroxybenzene-1-sulfonamide]
IC50 [1]: 158 nM

Cc1cc(OCCCS(N)(=O)=O)ccc1NC(=O)COc1ccc(Cl)cc1C(=O)c1cc(F)cc(C(F)(F)F)c1 [GW3011]
IC50 [1]: 4 nM

Cc1cc(S(N)(=O)=O)ccc1NC(=O)COc1ccc(Cl)cc1C(=O)c1cc(F)cc(C(F)(F)F)c1 [GW4511]
IC50 [1]: 2 nM

Cc1cc(S(N)(=O)=O)ccc1NC(=O)COc1ccc(Cl)cc1C(=O)c1cc(Cl)cc(C#N)c1 [GW678248]
IC50 [1]: 1 nM

Cc1c(C(C)C)s/c(=N\S(=O)(=O)c2cccc([N+](=O)[O-])c2)n1C [N-(3,4-Dimethyl-5-isopropyl-1,3-thiazol-2(3H)-ylidene)-3-nitrobenzenesulfonamide]
IC50 [1]: 20000 nM

C=Cc1s/c(=N\S(=O)(=O)c2cccc([N+](=O)[O-])c2)n(C)c1C [N-(3,4-Dimethyl-5-vinyl-1,3-thiazol-2(3H)-ylidene)-3-nitrobenzenesulfonamide]
IC50 [1]: 6170 nM

CC(C)c1s/c(=N\S(=O)(=O)c2cc(C#N)ccc2C#N)n(C)c1Cl [N-(4-Chloro-5-isopropyl-3-methyl-1,3-thiazol-2(3H)-ylidene)-2,5-dicyanobenzenesulfonamide]
IC50 [1]: 3020 nM

Cc1c(C(C)(C)C)s/c(=N\S(=O)(=O)c2cc(Cl)ccc2O)n1C [N-(5-tert-Butyl-3,4-dimethyl-1,3-thiazol-2(3H)-ylidene)-5-chloro-2-hydroxybenzenesulfonamide]
IC50 [1]: 1000 nM

CC(C)c1s/c(=N\S(=O)(=O)c2cccc([N+](=O)[O-])c2)n(C)c1C(F)(F)F [N-[(2Z)-3-methyl-5-(propan-2-yl)-4-(trifluoromethyl)-2,3-dihydro-1,3-thiazol-2-ylidene]-3-nitrobenzene-1-sulfonamide]
IC50 [1]: 41700 nM

CCc1s/c(=N\S(=O)(=O)c2cccc([N+](=O)[O-])c2)n(C)c1C [N-[(2Z)-5-ethyl-3,4-dimethyl-2,3-dihydro-1,3-thiazol-2-ylidene]-3-nitrobenzene-1-sulfonamide]
IC50 [1]: 6310 nM

Cc1c(C(C)(C)C)s/c(=N\S(=O)(=O)c2ccccc2O)n1C [N-[(2Z)-5-tert-butyl-3,4-dimethyl-2,3-dihydro-1,3-thiazol-2-ylidene]-2-hydroxybenzene-1-sulfonamide]
IC50 [1]: 31600 nM

Cc1c(C(C)(C)C)s/c(=N\S(=O)(=O)c2cccc(Cl)c2)n1C [N-[(2Z)-5-tert-butyl-3,4-dimethyl-2,3-dihydro-1,3-thiazol-2-ylidene]-3-chlorobenzene-1-sulfonamide]
IC50 [1]: 10000 nM

CC(C)c1s/c(=N\S(=O)(=O)c2cccc([N+](=O)[O-])c2)n(C)c1Cl [thiazolidenebenzenesulfonamide deriv. 17k]
IC50 [1]: 6920 nM

Cc1c(C(C)C)s/c(=N\S(=O)(=O)c2cc(C#N)ccc2C#N)n1C [thiazolidenebenzenesulfonamide deriv.]
IC50 [1]: 3980 nM
